Target: T1, BaCYP106A6 (Bacillus sp. (in: firmicutes), UniProt Z9J180VW61)
T1 construct: His-tagged, pET28a(+), E. coli C41(DE3); Co2+ resin; monomer; N-terminus MLKEVI and C-terminus NVYK deduced from printed primers; heme-ligating Cys356; unique Arg295
T1 sequence (Z9J180VW61 1-410): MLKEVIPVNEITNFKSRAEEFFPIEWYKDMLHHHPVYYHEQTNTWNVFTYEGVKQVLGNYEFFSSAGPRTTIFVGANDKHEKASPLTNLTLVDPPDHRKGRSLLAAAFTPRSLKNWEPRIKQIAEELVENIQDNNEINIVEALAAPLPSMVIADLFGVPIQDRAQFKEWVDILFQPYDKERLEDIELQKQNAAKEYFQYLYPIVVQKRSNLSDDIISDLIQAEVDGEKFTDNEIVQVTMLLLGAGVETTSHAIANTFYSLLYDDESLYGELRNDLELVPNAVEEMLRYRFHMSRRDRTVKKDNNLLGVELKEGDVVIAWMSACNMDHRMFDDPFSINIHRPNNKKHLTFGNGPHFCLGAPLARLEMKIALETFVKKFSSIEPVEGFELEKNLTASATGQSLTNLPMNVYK
Test: UV-visible type I difference spectral titration
Type: binding

## C[C@]12CCC(=O)C=C1CC[C@@H]1[C@@H]2CC[C@]2(C)C(=O)CC[C@@H]12 [androstenedione]
  Kd: 36.6 µM

## CC(=O)[C@H]1CC[C@H]2[C@@H]3CCC4=CC(=O)CC[C@]4(C)[C@H]3CC[C@]12C [progesterone]
  Kd: 38.4 µM
